Reference: patent US20160145580A1, “METHOD OF CULTURING CANCER STEM CELLS” (AGENCY FOR SCIENCE, TECHNOLOGY AND RESEARCH, priority 2013, published 2016)
Like-named read-outs stand apart in the source and are kept apart here.

Test system: MDA-MB-231 cells
Assay: cells
Format: cell-based
Settings: Homo sapiens, MDA-MB-231, 48 h
Experimental: Here, 250 μl of MDA-MB-231 cells in culture medium at cell density of 5.2×10^3 cells/ml was seeded onto the gels (0.2, 0.5, 1.0, 2.5 and 4.0 kPa). The culture medium was changed every 3 days. […] Then, the cells were washed with PBS and the fluorescence intensity was measured using the AlamarBlue cell viability assay as described above. Cell viability in the presence of anti-cancer drugs was normalized to the untreated control groups (0 μM).

Structure (SMILES): COc1cccc2c1C(=O)c1c(O)c3c(c(O)c1C2=O)C[C@@](O)(C(=O)CO)C[C@@H]3O[C@H]1C[C@H](N)[C@H](O)[C@H](C)O1 [doxorubicin]
- viability at 100 µM (read-out: cell viability, 100 μM doxorubicin, 48 hours, 0.2 and 0.5 kPa gels): ~80%
- viability at 100 µM (read-out: cell viability, 100 μM doxorubicin, 48 hours, HA-Tyr gels 2.5 and 4.0 kPa): ~20%
- viability at 100 µM (read-out: cell viability, 100 μM doxorubicin, 48 hours, cell culture plate): ~10%
